# Where two headings read alike, the source gives them in different places.
# How the values were obtained:
# [1] = tested on: Staphylococcus aureus ATCC 29213 (MSSA); test: Broth microdilution MIC, S. aureus ATCC 29213; type: cell-based; details: for MIC: read-out: MIC S. a. 29213
# Experimental: (§1) Compounds were evaluated for antimicrobial activity against a panel of bacterial strains using a broth microdilution assay performed as recommended by the NCCLS (NCCLS (National Committee for Clinical Laboratory Standards). 1993. Methods for dilution antimicrobial susceptibility tests for bacteria that grow aerobically. NCCLS Document M7-A3, 1993. In: NCCLS Antimicrobial Susceptibility Testing, 3rd Ed.)
# (§2) The minimum inhibitory concentration (MIC) is defined as the lowest concentration of a compound that prevents the growth of the bacteria.
# [2] = tested on: Enterococcus faecalis ATCC 29212; test: Broth microdilution MIC, E. faecalis ATCC 29212; type: cell-based
# Experimental: as §1, §2
# [3] = tested on: Staphylococcus aureus 76 (MRSA, β-lactamase producing); test: Broth microdilution MIC, S. aureus 76; type: cell-based; details: for MIC: read-out: MIC S. a. 76
# Experimental: as §1, §2
# [4] = Human serum binding by ultrafiltration; type: in vitro ADME
# Experimental: Binding of several representative compounds of this invention in pooled human serum was determined using ultrafiltration. Compounds were incubated in serum for 10 minutes at 37° C. in a shaking water bath. Serum ultrafiltrate was accomplished by centrifugation (Amicon Centrifree) for 20 minutes at 25° C. Compound content in the ultrafiltrate was quantified by HPLC. An ultrafilrate obtained by following the same procedure with no added compound was used as a standard.
# [5] = Human serum binding estimated from serum effect on MIC (HSB*); type: in vitro ADME; details: MIC against S. aureus ATCC 29213 in growth medium vs 1:1 growth medium and human serum
# From the text: An estimate of human serum binding (HSB*) was obtained for some compounds using the MIC values against S. aureus ATCC 29213 determined in growth medium (GM) and in a 1:1 mixture of growth medium and human serum (GM+HS):
# HSB*=(MICGM+HS−MICGM)/MICGM 100%
# [6] = tested on: Staphylococcus aureus COL (MRSA, non-β-lactamase producing); test: Broth microdilution MIC, S. aureus COL; type: cell-based; details: for MIC: read-out: MIC S. a. COL
# Experimental: as §1, §2
# [7] = tested on: Staphylococcus aureus Smith (MSSA); test: Broth microdilution MIC, S. aureus Smith; type: cell-based; details: for MIC: read-out: MIC S. a. Smith
# Experimental: as §1, §2
# [8] = tested on: Enterococcus faecium ATCC 35667; test: Broth microdilution MIC, E. faecium ATCC 35667; type: cell-based
# Experimental: as §1, §2
# S. aureus strain Smith = test: Experimental infection of mice, ED50; type: in vivo, Swiss-Webster mice; details: for ED50: Staphylococcus aureus, read-out: ED50, mg/kg (95% C.I.)
# Experimental: Staphylococcus aureus strain Smith (ATCC 13709, penicillin-susceptible) or strain 76 (methicillin-resistant) was cultured overnight at 37° C. in brain-heart infusion broth (BHIB). The following morning, a portion of the culture was transferred to fresh BHIB and incubated for an additional 4-5 hours at 37° C. The cells were harvested by centrifugation, washed twice with PBS, and adjusted to the desired inoculum amount. The cell suspension was mixed with an equal volume of sterile 14% hog-gastric mucin (Comber K. R.; Osborne C. D.; Sutherland R.: Comparative effects of amoxicillin and ampicillin in the treatment of experimental mouse infections. Antimicrobial Agents and Chemotherapy 7(2):179-185, 1975). The inoculum was kept in an ice bath until used (preferably in less than one hour).
# Male Swiss-Webster mice were challenged intraperitoneally with 0.5 mL of a bacterial suspension of S. aureus strain Smith (LD50). Test compounds were administered subcutaneously in 0.1 mL volumes immediately after inoculation and 2 hours later. […] The total dose associated with 50% survival (ED50) was determined using the probit method (Pasiello, A. P., J. M. Essigmann, and G. N. Wogan.: Rapid and accurate determination of median lethal dose (LD50) and its error with a small computer. J Toxicol. Environ. Health. 3:797-809, 1977).
# [9] = Staphylococcus aureus ATCC 29213 (MSSA)
# [10] = ATCC29212, Enterococcus faecalis ATCC 29212, read-out: MIC E. f. 29212
# [11] = Staphylococcus aureus 76 (MRSA, β-lactamase producing)
# [12] = pooled human serum, ultrafiltration, 10 minutes at 37° C.
# [13] = Staphylococcus aureus COL (MRSA, non-β-lactamase producing)
# [14] = Staphylococcus aureus Smith (MSSA)
# [15] = ATCC35667, Enterococcus faecium ATCC 35667, read-out: MIC E. f. 35667
# [16] = 50% efficacious dose, S. aureus Smith, mice challenged intraperitoneally, compound subcutaneously at 0 and 2 h, total dose, 72 h survival
# [17] = Enterococcus faecalis ATCC 29212
# [18] = Enterococcus faecium ATCC 35667
"MIC [1, 9]","MIC [2, 10]","MIC [3, 11]","HSB, human serum binding [4, 12]","HSB*, human serum binding calculated using serum effect on MIC [5]","MIC [6, 13]","MIC [7, 14]","MIC [8, 15]",SMILES,"MIC S. a. 29213 [1, 9]","MIC E. f. 29212 [2, 17]","MIC S. a. 76 [3, 11]","MIC S. a. COL [6, 13]","MIC S. a. Smith [7, 14]","MIC E. f. 35667 [8, 18]",further results
0.125 µg/mL,0.25 µg/mL,1 µg/mL,91%,98%,1 µg/mL,0.125 µg/mL,0.5 µg/mL,"Nc1nc(C(=NO)C(=O)N[C@@H]2C(=O)N3C(C(=O)O)=C(Sc4nncs4)CSC23)c(Cl)s1 (stereo partly drawn) [Compound 41, (7R)-7-[2-(2-Amino-5-chlorothiazol-4-yl)-2-hydroxyiminoacetylamino]-8-oxo-3-([1,3,4]thiadiazol-2-ylsulfanyl)-5-thia-1-aza-bicyclo[4.2.0]oct-2-ene-2-carboxylic acid]",–,–,–,–,–,–,–
0.25 µg/mL,0.25 µg/mL,2 µg/mL,90%,94%,1 µg/mL,0.25 µg/mL,1 µg/mL,"Nc1nnc(SC2=C(C(=O)O)N3C(=O)[C@@H](NC(=O)C(=NO)c4nc(N)sc4Cl)C3SC2)s1 (stereo partly drawn) [Compound 36, (7R)-7-[2-(2-amino-5-chlorothiazol-4-yl)-2-hydroxyiminoacetylamino]-3-(5-amino-[1,3,4]thiadiazol-2-ylsulfanyl)-8-oxo-5-thia-1-aza-bicyclo[4.2.0]oct-2-ene-2-carboxylic acid]",–,–,–,–,–,–,–
0.25 µg/mL,0.5 µg/mL,2 µg/mL,98%,–,2 µg/mL,0.25 µg/mL,2 µg/mL,Nc1nc(/C(=N/O)C(=O)N[C@@H]2C(=O)N3C(C(=O)O)=C(Sc4ccncc4)CS[C@H]23)c(Cl)s1 [Compound 21],–,–,–,–,–,–,ED50 (S. aureus strain Smith; [16]): 3.6 mg/kg

# The next lines start with the compound.
SMILES,"MIC [1, 9]","MIC [2, 10]","MIC [3, 11]","HSB, human serum binding [4, 12]","HSB*, human serum binding calculated using serum effect on MIC [5]","MIC [6, 13]","MIC [7, 14]","MIC [8, 15]","MIC S. a. 29213 [1, 9]","MIC E. f. 29212 [2, 17]","MIC S. a. 76 [3, 11]","MIC S. a. COL [6, 13]","MIC S. a. Smith [7, 14]","MIC E. f. 35667 [8, 18]",further results
"Cc1nnsc1SC1=C(C(=O)O)N2C(=O)[C@@H](NC(=O)C(=NO)c3nc(N)sc3Cl)C2SC1 (stereo partly drawn) [Compound 34, (7R)-7-[2-(2-Amino-5-chlorothiazol-4-yl)-2-hydroxyiminoacetylamino]-3-(4-methyl-[1,2,3]thiadiazol-5-ylsulfanyl)-8-oxo-5-thia-1-aza-bicyclo[4.2.0]oct-2-ene-2-carboxylic acid]",0.125 µg/mL,0.25 µg/mL,2 µg/mL,–,— (98%),2 µg/mL,0.125 µg/mL,2 µg/mL,–,–,–,–,–,–,–
Nc1nnc(SCc2cnccc2SC2=C(C(=O)O)N3C(=O)[C@@H](NC(=O)/C(=N\O)c4nc(N)sc4Cl)[C@H]3SC2)s1 [Compound 26],–,–,–,>99%,–,–,–,–,0.25 µg/mL,0.25 µg/mL,2 µg/mL,1 µg/mL,0.06 µg/mL,0.5 µg/mL,"ED50, mg/kg (95% C.I.) (S. aureus strain Smith; [16]): 0.38 (01-0.7) mg/kg"
Nc1nc(/C(=N/O)C(=O)N[C@@H]2C(=O)N3C(C(=O)O)=C(Sc4ccncc4CSCCNC=O)CS[C@H]23)c(Cl)s1 [Compound 27],–,–,–,–,–,–,–,–,0.25 µg/mL,0.25 µg/mL,4 µg/mL,2 µg/mL,0.25 µg/mL,1 µg/mL,"HSB, human serum binding [4]: 94%; ED50, mg/kg (95% C.I.) (S. aureus strain Smith; [16]): 2.27 (1.0-5.5) mg/kg"
"CN[C@H](CC(C)C)C(=O)N[C@H]1C(=O)N[C@@H](CC(N)=O)C(=O)N[C@H]2C(=O)N[C@H]3C(=O)N[C@H](C(=O)N[C@H](C(=O)O)c4cc(O)cc(O)c4-c4cc3ccc4O)[C@H](O)c3ccc(c(Cl)c3)Oc3cc2cc(c3O[C@@H]2O[C@H](CO)[C@@H](O)[C@H](O)[C@H]2O[C@H]2C[C@](C)(N)[C@H](O)[C@H](C)O2)Oc2ccc(cc2Cl)[C@H]1O [Vancomycin, reference compound]",–,–,–,–,–,–,–,–,–,–,–,–,–,–,"MIC ([1]; Staphylococcus aureus): 0.5 µg/mL; MIC ([2]; Enterococcus faecalis, ATCC29212, read-out: MIC E. f. 29212): 1 µg/mL; MIC ([3]; Staphylococcus aureus, MRSA): 0.5 µg/mL; MIC ([6]; Staphylococcus aureus, MRSA): 1 µg/mL; MIC ([7]; Staphylococcus aureus, MSSA): 0.5 µg/mL; ED50 (S. aureus strain Smith): 2.1 mg/kg; MIC ([8]; Enterococcus faecium, ATCC35667, read-out: MIC E. f. 35667): 0.25 µg/mL"
Nc1nc(/C(=N/O)C(=O)N[C@@H]2C(=O)N3C(C(=O)O)=C(Sc4ccncc4CSc4ccncc4)CS[C@H]23)c(Cl)s1 [Compound 25],–,–,–,–,–,–,–,–,0.25 µg/mL,0.125 µg/mL,2 µg/mL,1 µg/mL,0.25 µg/mL,0.25 µg/mL,"HSB, human serum binding [4]: >99%; ED50, mg/kg (95% C.I.) (S. aureus strain Smith; [16]): >5 mg/kg"
"Nc1nc(C(=NO)C(=O)N[C@@H]2C(=O)N3C(C(=O)O)=C(Sc4cnns4)CSC23)ns1 (stereo partly drawn) [Compound 39, (7R)-7-[2-(5-Amino-[1,2,4]thiadiazol-3-yl)-2-hydroxyimino-acetylamino]-8-oxo-3-([1,2,3]thiadiazol-5-ylsulfanyl)-5-thia-1-aza-bicyclo[4.2.0]oct-2-ene-2-carboxylic acid]",0.125 µg/mL,1 µg/mL,8 µg/mL,–,— (94%),8 µg/mL,0.125 µg/mL,2 µg/mL,–,–,–,–,–,–,–
"C[C@@H](O)[C@H]1C(=O)N2C(C(=O)O)=C(SCCN=CN)C[C@H]12 [Imipenem, reference compound]",< 0.02 µg/mL,1 µg/mL,32 µg/mL,–,–,16 µg/mL,0.25 µg/mL,4 µg/mL,–,–,–,–,–,–,ED50 (S. aureus strain Smith; [16]): 0.15 mg/kg
Nc1nc(/C(=N/O)C(=O)N[C@@H]2C(=O)N3C(C(=O)O)=C(Sc4cccc5nncn45)CS[C@H]23)c(Cl)s1 [Compound 35],–,–,–,–,— (88%),–,–,–,0.5 µg/mL,0.25 µg/mL,4 µg/mL,4 µg/mL,0.25 µg/mL,4 µg/mL,–

# Source: patent US6599893B2, “Cephalosporin antibiotics and prodrugs thereof” (Essential Therapeutics, Inc., priority 2000, dated 2003)
